Assay results taken from patent publication US11319300B2, “Polyfluoro-substituted aromatic heterocyclic derivative, pharmaceutical composition containing same, and applications thereof” (ZHEJIANG UNIVERSITY, priority 2017, dated 2022).

Columns and labels:
AKT1/PKBα = molecular target: T1, AKT1/PKBα (Homo sapiens, UniProt P31749); test: Akt1 enzyme inhibitory activity, AKT1/PKBα KinEASE FP Fluorescein Green Assay; format: biochemical; conditions: fluorescence polarization kit assay; read-out: Akt1 IC50 (grade)
T1 construct: purchased
Procedure: (§1) Compound AZD5363 (NCT02208375, NCT02208375, NCT01625286), which have entered the clinical phase II study, was used as a positive control, and the compound was assayed against common tumour cell lines (human ovarian cancer cell line OVCAR-8 and human colon cancer cell line HCT-116) by MTT assay, at the same time, the akt1 enzyme inhibitory activity (IC50) was evaluated using a commercial Akt1 kit.
2) Test method for the inhibitory activity of the compound of the present invention against Akt1 enzyme:
The AKT1/PKBα KinEASE™ FP Fluorescein Green Assay (Kinase Green Fluorescence Detection System) was used to detect the inhibitory activity of the compound on AKT1/PKBα.
Fluorescence polarization detection protein kinase B employs the principle of a competitive reaction: a fluorescently labeled phosphorylated tracer and an unlabeled phosphorylated product produced by the reaction of protein kinase B will compete with the anti-serine antibody for binding. In a reaction mixture […], when a part of the fluorescent tracer binds to the antibody, it causes a higher polarization value. However, in the reaction solution mixture containing the phosphorylated product, less tracer binds to the antibody (the fluorescent tracer was replaced from the antibody) and the emitted signal was depolarized. Therefore, the change in polarization was directly related to the activity of protein kinase B in the reaction.
The compound of the present invention and the positive control AZD5363 were dissolved in dimethyl sulfoxide (DMSO) and diluted to a concentration of 50 μM. At room temperature, 0.25 μl of the compound sample and the positive control at a concentration of 50 μM were taken and added to the 384-well plate, and three parallel wells were set for each sample, and then 10 μl of STK Substrate 3, Working Solution, 5 μl AKT1/PKBα Working Solution, 10 μl ATP Working Solution were added to each sample well plate with vibrating gently and shaking for a few minutes. The reaction starts after 10 μl of ATP Working Solution was added to the well, and the reaction was timed at room temperature for 1 hour. After one hour, 5 μl of STK Stop Mix and 5 μl of STK Antibody Mix were added to each well respectively to stop the reaction. After the addition completes, it was allowed to stand at room temperature for four hours, and the polarization value of the sample was detected by the fluorescence polarization of the microplate reader (it was effective to detect its signal within 24 hours), and the inhibition rate of the compound was calculated by the polarization value, and then IC50 was calculated.
Four sets of controls were set in the experiment, namely Buffer Control Wells, Tracer Control Wells, No Enzyme Wells, and a blank dimethyl sulfoxide control. The resulting data was used to calculate the inhibition rate.
The activity of the compound was divided into three grades according to the size of the IC50 of the Akt inhibitory activity: “+++”, 1 nM<IC50<10 nM; “++”, 10 nM<IC50<50 nM; “+”, 50 nM<IC50.

HGC27 = test: Tumour cell proliferation inhibition, MTT assay, HGC27; format: cell-based, human
MCF-7 = test: Tumour cell proliferation inhibition, MTT assay, MCF-7; format: cell-based, human
786-O = test: Tumour cell proliferation inhibition, MTT assay, 786-O; format: cell-based, human; conditions: Homo sapiens, 786-0, 72 h
HCT-116 = test: Tumour cell proliferation inhibition, MTT assay, HCT-116; format: cell-based, human
Procedure: as §1
1) The pharmacological test method for the tumour cell proliferation inhibiting activity of the compound of the present invention was as follows:
The first was the determination of in vitro tumour growth inhibitory activity and the preliminary structure-activity relationship study, and different solid tumour cell lines were used to determine the in vitro antitumour activity of the synthesized compounds.
Experimental materials: cell lines: human ovarian cancer cells (OVCAR8), colon adenocarcinoma cells (HCT-116),
Medium: OVCAR8: RPMI 1640+fetal calf serum
Drug preparation method: dissolving the drug in DMSO to make a 50 mM of stock solution, and diluting it to a certain ratio to obtain 5 different concentrations.
Tumour Cells being Cultured In Vitro:
The selected tumour cells were incubated in a, 5% of CO2 cell incubator at 37° C., and passaged until the cell density was 70 to 90% (the adherent cells were passaged with Duck's EDTA) and used for subsequent experiments.
The compound was dissolved in dimethyl sulfoxide (DMSO), diluted, and tumour cells were seeded into 4000 cells/200 μL/well in 96-well plates, and 1 μL of compound was added to each well to a final concentration of 50 μM, 10 μM, 2 μM, and 0.4 μM. 0.08 μM were incubated in a, 5% of CO2 cell incubator at 37° C. for 72 hours with DMSO (1%) as a blank control.
The calculation formula of the cell inhibition rate is: cell inhibition rate %=(control group OD value−drug group OD value)/control cell OD value×100%, and the half inhibition concentration (IC50) was determined by the Bliss method.

CEM-C1 = test: Tumour cell proliferation inhibition, MTT assay, CEM-C1; format: cell-based, human; conditions: Homo sapiens, CEM/C1, 72 h
[1] = Oral pharmacokinetic experiment in SD rats; format: in vivo; conditions: oral administration
Procedure: […] The blood sampling times of the tail vein administered by intragastric administration were 0.25, 0.5, 1, 2, 4, 6, 8, 10, 24 hours; the times of blood collection by intravenous administration were 0.05, 0.1, 0.17, 0.5, 1, 2, 4, 6, 8, 10, 24 hours. 0.3 ml of whole blood was taken, and after centrifugation, 0.1 ml of plasma was taken and analysed by LC-MS.

[2] = rat, in vivo, 20 mg/kg, mean n = 3

T1 sequence (P31749 whole entry): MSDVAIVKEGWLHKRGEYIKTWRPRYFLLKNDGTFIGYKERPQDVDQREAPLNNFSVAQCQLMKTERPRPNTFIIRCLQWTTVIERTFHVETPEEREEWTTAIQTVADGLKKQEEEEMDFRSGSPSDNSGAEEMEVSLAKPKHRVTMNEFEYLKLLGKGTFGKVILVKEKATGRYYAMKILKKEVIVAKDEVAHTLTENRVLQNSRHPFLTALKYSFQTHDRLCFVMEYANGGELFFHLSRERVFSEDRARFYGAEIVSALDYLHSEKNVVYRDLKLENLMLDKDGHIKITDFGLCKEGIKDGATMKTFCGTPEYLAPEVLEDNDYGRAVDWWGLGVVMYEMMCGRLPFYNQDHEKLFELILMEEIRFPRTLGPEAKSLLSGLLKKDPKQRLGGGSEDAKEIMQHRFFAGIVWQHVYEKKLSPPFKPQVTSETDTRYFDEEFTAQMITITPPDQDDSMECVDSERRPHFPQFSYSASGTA

IC50 (AKT1/PKBα) [nM]	IC50 (HGC27; Homo sapiens, HGC-27, 72 h) [nM]	IC50 (CEM-C1) [nM]	SMILES	other results
10 to 50			Cn1nccc1-c1ccc(C(=O)N[C@H]2CNCC[C@@H]2c2ccc(F)c(F)c2)c(F)c1 [VII-1b, 4-(1-methyl-1H-pyrazole-yl)-N-((3R,4R)-(3,4-difluorophenyl)piperidin-3-yl)-2-fluorobenzamide]	
10 to 50	70		Cn1ncc(Cl)c1-c1ccc(C(=O)N[C@@H]2CNCC[C@H]2c2ccc(F)c(F)c2)c(F)c1 [VII-2, 4-(1-methyl-4-chloro-1H-pyrazole-yl)-N-((3S,4S)-(3,4-difluorophenyl)piperidin-3-yl)-2-fluorobenzamide]	
10 to 50	90	160	Cc1cnn(C)c1-c1ccc(C(=O)N[C@@H]2CNCC[C@H]2c2ccc(F)c(F)c2)c(F)c1 [VII-3, 4-(1,4-dimethyl-1H-pyrazole-yl)-N-((3S,4S)-4-(3,4-difluorophenyl)piperidin-3-yl)-2-fluorobenzamide]	
> 50			Cn1ncc(C2CC2)c1-c1ccc(C(=O)N[C@@H]2CNCC[C@H]2c2ccc(F)c(F)c2)c(F)c1 [VII-4]	
10 to 50	40	150	Cn1ncc(Br)c1-c1ccc(C(=O)N[C@@H]2CNCC[C@H]2c2ccc(F)c(F)c2)c(F)c1 [VII-6, 4-(1-methyl-4-bromo-1H-pyrazole-yl)-N-((3S,4S)-(3,4-difluorophenyl)piperidin-3-yl)-2-fluorobenzamide]	
10 to 50	60	90	Cn1ncc(F)c1-c1ccc(C(=O)N[C@@H]2CNCC[C@H]2c2ccc(F)c(F)c2)c(F)c1 [VII-7]	IC50 (MCF-7; Homo sapiens, MCF7, 72 h): 2840 nM; IC50 (786-O): 990 nM; IC50 (HCT-116; Homo sapiens, HCT-116, 72 h): 2390 nM
10 to 50	80	210	Cn1nccc1-c1ccc(C(=O)N[C@@H]2CNCC[C@H]2c2c(F)c(F)cc(F)c2F)c(F)c1 [VII-9, 4-(1-methyl-1H-pyrazole-yl)-N-((3S,4S)-(2,3,5,6-tetrafluorophenyl)piperidin-3-yl)-2-fluorobenzamide]	
> 50			Cn1nccc1-c1cc(F)c(C(=O)N[C@@H]2CNCC[C@H]2c2ccc(F)c(F)c2)c(F)c1F [VII-13, 4-(1-methyl-1H-pyrazole-yl)-N-((3S,4S)-4-(3,4-difluorophenyl)piperidin-3-yl)-2,3,6-trifluorobenzamide]	
10 to 50	100	180	Cn1nccc1-c1cc(F)c(C(=O)N[C@@H]2CNCC[C@H]2c2ccc(F)c(F)c2)c(Cl)c1 [VII-14]	
> 50			Cc1cc(-c2ccnn2C)cc(F)c1C(=O)N[C@@H]1CNCC[C@H]1c1ccc(F)c(F)c1 [VII-15, 4-(1-methyl-1H-pyrazole-yl)-N-((3S,4S)-4-(3,4-difluorophenyl)piperidin-3-yl)-2-methyl-6-fluorobenzamide]	
10 to 50	80	110	Cn1nccc1-c1cc(F)c(C(=O)N[C@@H]2CNCC[C@H]2c2ccc(F)c(F)c2)c(C(F)(F)F)c1 [VII-16, 4-(1-methyl-1H-pyrazole-yl)-N-((3S,4S)-4-(3,4-difluorophenyl)piperidin-3-yl)-2-trifluoromethyl-6-fluorobenzamide]	
10 to 50	40	90	Cn1nccc1-c1ccc(C(=O)N[C@@H]2CNCC[C@H]2c2ccc(F)c(F)c2)c(F)c1F [VII-17, 4-(1-methyl-1H-pyrazole-yl)-N-((3S,4S)-4-(3,4-difluorophenyl)piperidin-3-yl)-2,3-difluorobenzamide]	
10 to 50	20	60	Cn1ncc(Cl)c1-c1ccc(C(=O)N[C@@H]2CNC[C@H]2c2ccc(F)c(F)c2)c(F)c1 [VII-19, 4-(1-methyl-4-chloro-1H-pyrazole-yl)-N-((3S,4R)-(3,4-difluorophenyl)pyrrolidin-3-yl)-2-fluorobenzamide]	
10 to 50	80	150	Cn1nccc1-c1cc(F)c(C(=O)N[C@@H]2CNC[C@H]2c2ccc(F)c(F)c2)c(F)c1 [VII-21, 4-(1-methyl-1H-pyrazole-yl)-N-((3S,4R)-(3,4-difluorophenyl)pyrrolidin-3-yl)-2,6-difluorobenzamide]	
> 50			Cn1nccc1-c1ccc(S(=O)(=O)N[C@@H]2CNCC[C@H]2c2ccc(F)c(F)c2)c(F)c1 [VII-23, N-((3S,4S)-4-(3,4-difluorophenyl)piperidin-3-yl)-2-fluoro-4-(1-methyl-1H-pyrazol-5-yl)benzenesulfonamide]	
10 to 50	70	70	Cn1ncnc1-c1ccc(C(=O)N[C@@H]2CNCC[C@H]2c2ccc(F)c(F)c2)c(F)c1 [VII-26]	
10 to 50	90	130	CCn1nccc1-c1ccc(C(=O)N[C@@H]2CNCC[C@H]2c2ccc(F)c(F)c2)c(F)c1 [VII-27, 4-(1-ethyl-1H-pyrazole-yl)-N-((3S,4S)-4-(3,4-difluorophenyl)piperidin-3-yl)-2-fluorobenzamide]	
10 to 50	50	100	O=C(N[C@@H]1CNCC[C@H]1c1ccc(F)c(F)c1)c1ccc(-c2ccnn2C2CC2)cc1F [VII-28, 4-(1-cyclopropyl-1H-pyrazol-yl)-N-((3S,4S)-4-(3,4-difluorophenyl)piperidin-3-yl)-2-fluorobenzamide]	
10 to 50	40	60	[2H]C([2H])([2H])n1nccc1-c1ccc(C(=O)N[C@@H]2CNCC[C@H]2c2ccc(F)c(F)c2)c(F)c1 [VII-29, 4-(1-(methyl-d3)-1H-pyrazol-yl)-N-((3S,4S)-4-(3,4-difluorophenyl)piperidin-3-yl)-2 fluorobenzamide]	
			Cn1nccc1-c1ccc(C(=O)N[C@@H]2CNCC[C@H]2c2ccc(F)c(F)c2)c(F)c1.O=C(O)C(O)C(O)C(=O)O [VII-33]	1/2 ([1]; 20 mg/kg, mean n = 3): 3.69 h; AUC0-inf ([1]; 20 mg/kg, mean n = 3): 2160 ng·h/mL; AUC0-t ([1]; 20 mg/kg, mean n = 3): 1950 ng·h/mL; improvement of AUC0-t over VII-1a ([1]; salt versus free form VII-1a): 30%; Cmax [1, 2]: 200 ng/mL; Tmax [1, 2]: 4 h

SMILES	IC50 (AKT1/PKBα) [nM]	IC50 (HGC27; Homo sapiens, HGC-27, 72 h) [nM]	IC50 (CEM-C1) [nM]	other results
Cn1nccc1-c1ccc(C(=O)N[C@@H]2CNCC[C@H]2c2ccc(F)c(F)c2)c(F)c1 (racemic) [VII-32]	1 to 10	60	70	IC50 (MCF-7; Homo sapiens, MCF7, 72 h): 1980 nM; IC50 (786-O): 910 nM; IC50 (HCT-116; Homo sapiens, HCT-116, 72 h): 980 nM
Cn1nccc1-c1ccc(C(=O)N[C@@H]2CNCC[C@H]2c2ccc(F)c(F)c2)c(F)c1.O=C(O)C[C@H](O)C(=O)O [VII-30, L-malate]	1 to 10		80	IC50 (HGC27; 72 hours, L-malate): 30 nM; IC50 (MCF-7; 72 hours, L-malate): 1580 nM; IC50 (786-O): 550 nM; IC50 (HCT-116; 72 hours, L-malate): 1990 nM
